According to ChEMBL document CHEMBL1201862, “PubChem BioAssay data set” (2004):
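Five concentrations, 48 hours, 96-well plates. At the GI50, growth is halved.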 The source made the active and inactive calls. Rule as the data show it: active = GI50 up to about 1.1 µM and inactive = higher.

How the values were obtained:
Experiment in all cases: growth of human tumour cells (NCI), 48 h
[1] = system: 786-0
[2] = system: A498
[3] = system: A549
[4] = system: ACHN
[5] = system: BT-549
[6] = system: CAKI-1
[7] = system: CCRF-CEM
[8] = system: COLO 205
[9] = system: DU-145
[10] = system: EKVX
[11] = system: HCC 2998
[12] = system: HCT-116
[13] = system: HCT-15
[14] = system: HL-60
[15] = system: HOP-62
[16] = system: HOP-92
[17] = system: HT-29
[18] = system: Hs-578T
[19] = system: IGROV-1
[20] = system: K562
[21] = system: KM12
[22] = system: LOX IMVI
[23] = system: M14
[24] = system: MCF7
[25] = system: MDA-MB-231
[26] = system: MDA-MB-435
[27] = system: MDA-N
[28] = system: MOLT-4
[29] = system: Malme-3M
[30] = system: NCI-H226
[31] = system: NCI-H23
[32] = system: NCI-H460
[33] = system: NCI-H522
[34] = system: NCI/ADR-RES
[35] = system: OVCAR-3
[36] = system: OVCAR-4
[37] = system: OVCAR-5
[38] = system: OVCAR-8
[39] = system: PC-3
[40] = system: RPMI-8226
[41] = system: RXF 393
[42] = system: SF-268
[43] = system: SF-295
[44] = system: SF-539
[45] = system: SK-MEL-28
[46] = system: SK-MEL-2
[47] = system: SK-MEL-5
[48] = system: SK-OV-3
[49] = system: SN12C
[50] = system: SNB-19
[51] = system: SNB-75
[52] = system: SR
[53] = system: SW-620
[54] = system: T47D
[55] = system: TK-10
[56] = system: U-251
[57] = system: UACC-257
[58] = system: UACC-62
[59] = system: UO-31

## COc1ccc(C(CC(C)=O)c2c(O)c3ccccc3oc2=O)cc1OC (configuration not stated)
[1]
  GI50: > 100 µM (inactive)
[2]
  GI50: > 100 µM (inactive)
[3]
  GI50: > 100 µM (inactive)
[4]
  GI50: > 100 µM (inactive)
[5]
  GI50: > 100 µM (inactive)
[6]
  GI50: > 100 µM (inactive)
[7]
  GI50: > 100 µM (inactive)
[8]
  GI50: > 100 µM (inactive)
[9]
  GI50: > 100 µM (inactive)
[10]
  GI50: > 100 µM (inactive)
[11]
  GI50: > 100 µM (inactive)
[12]
  GI50: > 100 µM (inactive)
[13]
  GI50: > 100 µM
[14]
  GI50: > 100 µM (inactive)
[15]
  GI50: > 100 µM (inactive)
[16]
  GI50: > 100 µM (inactive)
[17]
  GI50: > 100 µM (inactive)
[18]
  GI50: > 100 µM (inactive)
[19]
  GI50: > 100 µM (inactive)
[20]
  GI50: > 100 µM (inactive)
[21]
  GI50: > 100 µM (inactive)
[22]
  GI50: > 100 µM (inactive)
[23]
  GI50: > 100 µM (inactive)
[24]
  GI50: > 100 µM (inactive)
[25]
  GI50: > 100 µM (inactive)
[26]
  GI50: > 100 µM (inactive)
[27]
  GI50: > 100 µM (inactive)
[28]
  GI50: > 100 µM (inactive)
[29]
  GI50: > 100 µM (inactive)
[30]
  GI50: > 100 µM (inactive)
[31]
  GI50: > 100 µM (inactive)
[32]
  GI50: > 100 µM (inactive)
[33]
  GI50: > 100 µM (inactive)
[34]
  GI50: > 100 µM (inactive)
[35]
  GI50: > 100 µM (inactive)
[36]
  GI50: > 100 µM (inactive)
[37]
  GI50: > 100 µM (inactive)
[38]
  GI50: > 100 µM (inactive)
[39]
  GI50: > 100 µM (inactive)
[40]
  GI50: > 100 µM (inactive)
[41]
  GI50: > 100 µM (inactive)
[42]
  GI50: > 100 µM (inactive)
[43]
  GI50: > 100 µM (inactive)
[44]
  GI50: > 100 µM (inactive)
[45]
  GI50: > 100 µM (inactive)
[46]
  GI50: > 100 µM (inactive)
[47]
  GI50: > 100 µM (inactive)
[48]
  GI50: > 100 µM (inactive)
[49]
  GI50: > 100 µM (inactive)
[50]
  GI50: > 100 µM (inactive)
[51]
  GI50: > 100 µM (inactive)
[52]
  GI50: > 100 µM (inactive)
[53]
  GI50: > 100 µM (inactive)
[54]
  GI50: > 100 µM (inactive)
[55]
  GI50: > 100 µM (inactive)
[56]
  GI50: > 100 µM (inactive)
[57]
  GI50: > 100 µM (inactive)
[58]
  GI50: > 100 µM (inactive)
[59]
  GI50: > 100 µM (inactive)

## CO/N=C\c1cc(O)c(O)c(/C=N/OC)c1
[2]
  GI50: 49.1 µM (inactive)
[3]
  GI50: 26 µM (inactive)
[4]
  GI50: 29.6 µM (inactive)
[5]
  GI50: > 100 µM (inactive)
[6]
  GI50: 23.3 µM (inactive)
[7]
  GI50: 16 µM (inactive)
[8]
  GI50: 37.9 µM (inactive)
[9]
  GI50: 39.5 µM (inactive)
[10]
  GI50: 47.4 µM (inactive)
[11]
  GI50: 32.8 µM (inactive)
[12]
  GI50: 23.8 µM (inactive)
[13]
  GI50: 33.3 µM
[14]
  GI50: 3.48 µM (inactive)
[15]
  GI50: 51.4 µM (inactive)
[16]
  GI50: 61.1 µM (inactive)
[17]
  GI50: 40.5 µM (inactive)
[18]
  GI50: 12.6 µM (inactive)
[19]
  GI50: 27.4 µM (inactive)
[20]
  GI50: 29.8 µM (inactive)
[21]
  GI50: 38.8 µM (inactive)
[22]
  GI50: 41.3 µM (inactive)
[23]
  GI50: 33.3 µM (inactive)
[24]
  GI50: 29.3 µM (inactive)
[25]
  GI50: 36.1 µM (inactive)
[26]
  GI50: 50.5 µM (inactive)
[27]
  GI50: 64.4 µM (inactive)
[28]
  GI50: 8.17 µM (inactive)
[29]
  GI50: 52.7 µM (inactive)
[30]
  GI50: 30.3 µM (inactive)
[31]
  GI50: 26.9 µM (inactive)
[32]
  GI50: 23.1 µM (inactive)
[33]
  GI50: 14.1 µM (inactive)
[34]
  GI50: 30.6 µM (inactive)
[35]
  GI50: 4.82 µM (inactive)
[36]
  GI50: 24.9 µM (inactive)
[37]
  GI50: > 100 µM (inactive)
[38]
  GI50: 23.4 µM (inactive)
[39]
  GI50: 33.7 µM (inactive)
[40]
  GI50: 12.5 µM (inactive)
[41]
  GI50: 51.2 µM (inactive)
[42]
  GI50: 10.9 µM (inactive)
[43]
  GI50: 48 µM (inactive)
[44]
  GI50: 27 µM (inactive)
[45]
  GI50: > 100 µM (inactive)
[46]
  GI50: > 100 µM (inactive)
[47]
  GI50: 55.7 µM (inactive)
[48]
  GI50: 29.1 µM (inactive)
[49]
  GI50: 12.8 µM (inactive)
[50]
  GI50: 59.6 µM (inactive)
[51]
  GI50: 87.5 µM (inactive)
[52]
  GI50: 5.83 µM (inactive)
[53]
  GI50: 36.6 µM (inactive)
[54]
  GI50: 26.1 µM (inactive)
[55]
  GI50: 86.7 µM (inactive)
[56]
  GI50: 34.1 µM (inactive)
[57]
  GI50: > 100 µM (inactive)
[58]
  GI50: 38.8 µM (inactive)
[59]
  GI50: 11.3 µM (inactive)
